According to US11974973B2, “Ketone supplements-evoked effect on absence epilepsy by co-administration of uridine” (UNIVERSITY OF SOUTH FLORIDA, priority 2022, dated 2024):
“Also recorded” adds a separate entry of the source.

What was measured:
WAG/Rij rats [1] = assay: EEG recording of spike-wave discharges (SWD number, averaged and total SWD time) in WAG/Rij rat model of human absence epilepsy; type: in vivo
Excerpt: Free access to water and food (Table 1), as well as standard laboratory conditions were provided.
Rats were implanted with stainless steel screw electrodes for EEG recording under isoflurane-air mixture (2.0-2.5%) anesthesia. The screw electrodes were placed epidurally over the cortex of the frontal (AP: 2.0 mm; L: 2.1 mm) and parietal (AP: −6.5 mm; L: 2.1 mm) areas. Reference electrodes and ground electrodes were also stainless-steel screw electrodes (implanted above the cerebellar cortex). All electrodes were soldered to a 10-pin socket and permanently attached to the skull with dentacrylate cement (Ivoclar Vivadent AG, Schaan, Liechtenstein). Lidocaine ointment (5%; EGIS, Budapest, Hungary) was used as post-operative pain relief.
The EEG was recorded in a Faraday cage. […] The sampling rate was 500 Hz whereas the bandwidth of the EEG recording was 0.3 Hz to 150 Hz. Both the treatments and handling may induce stress and behavioral changes, which may modify the SWD number. […] For this reason, data of the first 30 min after the treatments was excluded from the analysis. Thus, the number and time of SWDs were considered between 30 and 270 min of post-treatment time (from 1.00 PM to 5.00 PM). SWDs (a train of asymmetric 7-11 Hz sharp spikes and slow waves) were cut off from the raw data files and were analyzed by FFT analysis. The recording periods were split into 60 min sections and evaluated separately. […]
Animals were assigned into eight groups (FIG. 1). To help the rats to adapt to the experimental procedures (e.g., EEG recording), after the two-week recovery period animals were handled daily and were connected to the EEG/CED system for 4 days (once a day, for 4.5 h) (group 1-8). Moreover, on same days, rats of group 7 and group 8 were also gavaged by water (2.5 g/kg/day) for the adaptation of rats to gavage method. To establish averaged control SWD numbers (group 1-8) and control average time and total time of SWDs (group 5, group 6, and group 8), all rats received 1 mL saline i.p. on 3 consecutive days (three control days, first treatment). Thirty min later, animals were injected again with 1 mL saline i.p. (second treatment, group 1-6) or gavaged by 2.5 g/kg water (second treatment, group 7 and 8). […] On the fourth day of experiments, the rats in group 1 and group 2 were i.p. injected with 1 mL 10% DMSO solution (first treatment) and, 30 min later, with 250 mg/kg, and 1000 mg/kg uridine in 1 mL saline (second treatment), respectively. On the fourth day, animals in group 3 first received 0.2 mg/kg DPCPX alone in 1 mL 10% DMSO solution (first treatment) followed by i.p. 1 mL saline (30 min later; second treatment) (FIG. 1). […] On that day, the animals in group 5 were injected with combined i.p. injection of DPCPX and uridine: 0.2 mg/kg DPCPX in 1 mL 10% DMSO solution (first treatment) and, 30 min later, 1000 mg/kg uridine in 1 mL saline (second treatment) were administered. […] Animals of group 7 received i.p. 1 mL saline (first treatment), and 30 min later, gavage of 2.5 g/kg KSMCT was carried out (second treatment) on the fourth day. […] On the fifth (PTC) day, i.p. administration of 1 mL saline (first treatment) was followed by gavage of 2.5 g/kg water (30 min later; second treatment; group 7 and 8) (FIG. 1).
Data were presented as means±standard error of the mean (S.E.M.). The pretreatment control values of SWD numbers (group 1-8) and SWD time (group 5, group 6, and group 8) were the grand average of SWD numbers and time recorded on the three control days.

WAG/Rij rats [2] = settings: effective doses; previous studies [7,8,25,41,45]; cited from earlier work
[3] = DPCPX i.p. 0.2 mg/kg or SCH 58261 i.p. 0.5 mg/kg alone, PTC day (groups 3 and 4, FIG. 2C,D)

SMILES	SWD number compared to control (WAG/Rij rats [1]; [3])	SWD number compared to control (WAG/Rij rats [1]; SCH 58261 i.p. 0.5 mg/kg alone, treatment day, four hours recording (group 4, FIG. 2D))	sleep-waking ratios and averaged time of SWDs (WAG/Rij rats [2])	SWD number compared to control (WAG/Rij rats [1]; DPCPX i.p. 0.2 mg/kg alone, treatment day, 30-270 min (group 3, FIG. 2C), 0.2 mg/kg)	SWD number compared to control (WAG/Rij rats [1]; uridine i.p. 250 mg/kg alone, post-treatment control (PTC) day (group 1, FIG. 2A))	SWD number compared to control (WAG/Rij rats [1]; uridine i.p. 250 mg/kg alone, treatment day, second to fourth hours of recording (group 1, FIG. 2A), 250 mg/kg)	SWD number compared to control (WAG/Rij rats [1]; uridine i.p. 1000 mg/kg alone, PTC day, 30-270 min (group 2, FIG. 2B))	SWD number compared to control (WAG/Rij rats [1]; uridine i.p. 1000 mg/kg alone, treatment day, 90-270 min (group 2, FIG. 2B), 1000 mg/kg)
Nc1nc2c(cnn2CCc2ccccc2)c2nc(-c3ccco3)nn12 [SCH 58261, 7-(2-phenylethyl)-5-amino-2-(2-furyl)-pyrazolo-[4,3-e]-1,2,4-triazolo[1,5-c]pyrimidine]	did not change SWD number on PTC days	did not generate anti-epileptic effect	did not change sleep-waking ratios and averaged time of SWDs	–	–	–	–	–
CCCn1c(=O)c2[nH]c(C3CCCC3)nc2n(CCC)c1=O [DPCPX, 1,3-dipropyl-8-cyclopentylxanthine]	did not change SWD number on PTC days	–	did not change sleep-waking ratios and averaged time of SWDs	did not evoke proepileptic effect; also recorded: did not generate changes in SWD number	–	–	–	–
O=c1ccn([C@@H]2O[C@H](CO)[C@@H](O)[C@H]2O)c(=O)[nH]1 [uridine]	–	–	did not change sleep-waking ratios and averaged time of SWDs	–	significant change in SWD number was not observed	only a trend of non-significant decrease in SWD number	significantly decreased SWD number	significantly decreased the SWD number
